Data from the NIST ThermoML archive (doi:10.1016/j.jct.2011.10.027).
± gives the expanded uncertainty stated by the source.

How the values were obtained:
[1] = 101.33 kPa, Liquid, Vibrating tube method
[2] = refractive index (Na D-line) (dimensionless); conditions: 293.15 K; 101.33 kPa; Liquid; Standard Abbe refractometry

| SMILES | mass density ([1]; 293.15 K) [kg/m3] | mass density ([1]; 298.15 K) [kg/m3] | mass density ([1]; 303.15 K) [kg/m3] | mass density ([1]; 313.15 K) [kg/m3] | mass density ([1]; 323.15 K) [kg/m3] | mass density ([1]; 333.15 K) [kg/m3] | refractive index [2] |
| --- | --- | --- | --- | --- | --- | --- | --- |
| Cc1ccccc1C [1,2-dimethylbenzene] | 879.79 ± 0.23 | 875.58 ± 0.23 | 871.37 ± 0.24 | 862.78 ± 0.24 | 854.02 ± 0.24 | 845.2 ± 0.24 | 1.5015 ± 0.0005 |
| Cc1cccc(C)c1 [1,3-dimethylbenzene] | 864.18 ± 0.24 | 859.88 ± 0.24 | 855.56 ± 0.24 | 846.85 ± 0.24 | 837.92 ± 0.24 | 829.01 ± 0.24 | 1.4936 ± 0.0005 |
| Cc1ccc(C)cc1 [1,4-dimethylbenzene] | 861.02 ± 0.24 | 856.68 ± 0.24 | 852.33 ± 0.24 | 843.59 ± 0.24 | 834.81 ± 0.24 | 825.96 ± 0.24 | 1.4922 ± 0.0005 |
| CCc1ccccc1 [ethylbenzene] | 866.99 ± 0.24 | 862.59 ± 0.24 | 858.18 ± 0.24 | 849.33 ± 0.24 | 840.42 ± 0.24 | 831.42 ± 0.24 | 1.4922 ± 0.0005 |
| O=[N+]([O-])c1ccccc1 [nitrobenzene] | 1203.13 ± 0.4 | 1198.17 ± 0.39 | 1193.21 ± 0.39 | 1183.3 ± 0.38 | 1173.38 ± 0.37 | 1163.45 ± 0.36 | 1.549 ± 0.0005 |
| Cc1ccccc1 [toluene] | 866.89 ± 0.13 | 862.24 ± 0.13 | 857.58 ± 0.13 | 848.2 ± 0.13 | 838.76 ± 0.13 | 829.22 ± 0.14 | 1.493 ± 0.0005 |
| CCCCN(CCCC)CCCC [tributylamine] | 776.91 ± 0.24 | 773.18 ± 0.24 | 769.45 ± 0.24 | 761.97 ± 0.24 | 754.45 ± 0.24 | 746.88 ± 0.24 | 1.4259 ± 0.0005 |
